Assay results from publication PMC11882969 (Nature Communications, 2025).
“And” between values parts separate entries of the source, which are not always exact repeats. Identical values can stand only once.

Legend:
[1] = tested on: Malate dehydrogenase; assay: Enzyme inhibition counter-screen, MDH; type: biochemical; details: Rep 1-3 mean; sheet FigureS2c
Description: (§1) Enzyme inhibition assays to test for colloidal inhibition were performed at room temperature using CLARIOstar Plate Reader (BMG Labtech). Samples were prepared in 50 mM KPi buffer, pH 7.0 with final DMSO concentration at 1% (v/v). Compounds were incubated with 2 nM AmpC β-lactamase (AmpC) or Malate dehydrogenase (MDH) for 5 min. AmpC reactions were initiated by the addition of 50 μM CENTA chromogenic substrate (219475, Calbiochem). […] MDH reactions were initiated by the addition of 200 μM nicotinamide adenine dinucleotide (NADH) (54839, Sigma Aldrich) and 200 μM oxaloacetic acid (324427, Sigma Aldrich). The change in absorbance was monitored at 340 nm for 60 sec. Initial rates were divided by the DMSO control rate to determine % enzyme activity. Each compound was screened at 100μM in triplicate for three independent experiments, if enzyme inhibition greater than 30% was observed, 8-point half-log concentrations were performed in triplicate for three independent experiments. Data was analyzed using GraphPad Prism 9.1.

[2] = molecular target: AmpC β-lactamase (Escherichia coli, UniProt P00811); type: biochemical; details: Rep 1-3 mean; sheet FigureS2c
Description: as §1, with “[…].” for “Each compound was screened at 100μM in triplicate for three independent experiments, if enzyme inhibition greater than 30% was observed, 8-point half-log concentrations were performed in triplicate for three independent experiments.”

[3] = molecular target: T1, CB1R with G protein (Gi1-3, Go) (Homo sapiens, UniProt P21554); assay: GTP turnover assay (GTPase-Glo); type: biochemical; details: replicates, sheet FigS3c
T1 construct: a N-terminal FLAG tag and C-terminal histidine tag was added to human full-length CB1; FLAG (N); histidine tag (C); made in house; host or cells: CB1R: Spodoptera frugiperda Sf9; G proteins: Trichoplusia ni Hi5
Description: Analysis of GTP turnover was performed by using a modified protocol of the GTPase-Glo^TM assay (Promega) described previously. Ligand-bound (10 μM ligand incubated for one hour at room temperature) or apo CB1R (1 μM) was mixed with G protein (1 μM) in 20 mM HEPES, pH 7.5, 50 mM NaCl, 0.01% L-MNG/0.001% CHS, 100 μM TCEP, 10 μM GDP and 10 μM GTP and incubated at room temperature. GTPase-Glo-reagent was added to the sample after incubation for 60 min (Gi1-3) and 20 min for (Go). Luminescence was measured after the addition of detection reagent and incubation for 10 min at room temperature using a SpectraMax Paradigm plate reader.

[4] = molecular target: hCB2 (Homo sapiens, UniProt P34972); assay: TRUPATH BRET2 GoA dissociation, HEK293T; type: cell-based; parameters: expressed in transfected cells; host or cells: HEK293T cells (ATCC: CRL-3216), transient co-transfection; details: for functional response, concentration-response point (FigS7e, normalized): Log[drug], replicate columns
[5] = molecular target: hCB1 (Homo sapiens, UniProt P21554); assay: Tango β-arrestin-2 recruitment, HTLA cells, CB1R; type: cell-based; parameters: expressed in transfected cells; host or cells: HTLA cells (gift of R. Axel), transient transfection
Chain of hCB1 (P21554 whole entry): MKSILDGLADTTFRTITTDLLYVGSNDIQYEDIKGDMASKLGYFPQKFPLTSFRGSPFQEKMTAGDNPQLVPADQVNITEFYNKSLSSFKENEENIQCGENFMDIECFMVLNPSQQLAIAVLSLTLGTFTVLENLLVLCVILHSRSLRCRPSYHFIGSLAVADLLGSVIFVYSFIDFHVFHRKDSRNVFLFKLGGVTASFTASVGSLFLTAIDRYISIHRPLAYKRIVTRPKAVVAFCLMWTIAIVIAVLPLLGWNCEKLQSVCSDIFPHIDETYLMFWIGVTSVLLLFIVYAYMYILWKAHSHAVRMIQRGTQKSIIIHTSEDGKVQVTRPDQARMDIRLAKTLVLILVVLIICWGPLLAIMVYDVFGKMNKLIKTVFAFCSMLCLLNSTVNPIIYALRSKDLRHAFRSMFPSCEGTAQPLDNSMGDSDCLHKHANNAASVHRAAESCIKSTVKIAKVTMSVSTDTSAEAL

Chain of hCB2 (P34972 whole entry): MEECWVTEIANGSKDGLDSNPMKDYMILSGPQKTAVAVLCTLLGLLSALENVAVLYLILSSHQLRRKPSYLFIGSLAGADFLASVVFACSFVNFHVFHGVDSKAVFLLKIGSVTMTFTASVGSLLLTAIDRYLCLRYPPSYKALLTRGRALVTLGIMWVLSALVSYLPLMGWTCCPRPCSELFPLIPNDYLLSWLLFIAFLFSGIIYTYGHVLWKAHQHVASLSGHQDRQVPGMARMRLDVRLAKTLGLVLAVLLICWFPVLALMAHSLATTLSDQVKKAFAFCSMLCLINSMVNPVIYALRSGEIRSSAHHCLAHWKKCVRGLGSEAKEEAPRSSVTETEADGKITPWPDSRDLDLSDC
T1 sequence (P21554 whole entry): as the sequence (P21554 whole entry) above
Chain of AmpC β-lactamase (P00811 20-377): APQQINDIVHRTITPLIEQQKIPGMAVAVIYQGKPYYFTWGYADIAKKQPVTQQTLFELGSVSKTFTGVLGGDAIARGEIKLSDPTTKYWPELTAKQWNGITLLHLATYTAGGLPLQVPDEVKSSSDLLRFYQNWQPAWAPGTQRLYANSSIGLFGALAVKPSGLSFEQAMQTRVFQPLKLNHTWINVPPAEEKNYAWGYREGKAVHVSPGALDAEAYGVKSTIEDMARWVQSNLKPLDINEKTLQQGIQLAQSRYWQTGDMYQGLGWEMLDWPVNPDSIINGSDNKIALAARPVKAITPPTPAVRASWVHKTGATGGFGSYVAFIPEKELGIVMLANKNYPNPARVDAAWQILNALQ

## Cn1nc(-c2nnc(C(C)(C)Oc3ccc(Cl)cc3)o2)c2ccccc2c1=O [‘0450]
[1]
  MDH activity (DMSO = 100), replicate means: 124.427 and 98.8422 and 101.682
[2]
  AMPC activity (DMSO = 100), replicate means: 142.819 and 64.3814 and 173.064

## COC(=O)[C@](C)(NC(=O)c1cc(C)n(-c2cccc(C(F)(F)F)c2)n1)c1cccs1 [‘8690]
[3]; Gi2
  GTP turnover, normalised (FUB about 100): 16.9643 and 39.0749 and 37.2739 and 44.0104 and 47.8141 and 43.1917
[3]; Gi3
  GTP turnover, normalised (FUB about 100): 40.931 and 39.8765 and 45.2237 and 46.1547 and 48.6065 and 44.9238
[3]; Goa
  GTP turnover, normalised (FUB about 100): 61.5575 and 70.4664 and 69.7244 and 64.4739 and 72.6259 and 67.4132
[3]; first block, G protein not printed (Gi2, Gi3, Goa follow)
  GTP turnover, normalised (FUB about 100): 38.198 and 43.143 and 41.7234 and 41.9514 and 39.8163 and 42.5776

## COC(=O)C(NC(=O)c1cc(C)n(-c2cccc(C(F)(F)F)c2)n1)c1cccs1 (stereo not shown) [‘60154]
[4]
  BRET2 + GoA pEC50: 6.2 [5.6 – 6.9]
  EC50: 0.594 µM
[4]; HEK-293T
  Emax: 31%
[4]; M = -4.52
  functional response, concentration-response point (FigS7e, normalized): 18.671 and 20.9182 and 18.0789 and 16.7004
[4]; M = -5
  functional response, concentration-response point (FigS7e, normalized): 15.3625 and 13.9237 and 14.7132 and 15.4107 and 19.4252 and 16.9876 and 18.2783 and 12.2533 and 11.9429 and 13.7725 and 13.3839 and 13.0025
[4]; M = -5.52
  functional response, concentration-response point (FigS7e, normalized): 9.963 and 10.999 and 10.5318 and 12.5419 and 11.8092 and 12.1824 and 9.605 and 7.598 and 8.713 and 9.44 and 10.8654 and 8.808
[4]; M = -6
  functional response, concentration-response point (FigS7e, normalized): 5.593 and 3.808 and 3.775 and 3.462 and 6.67 and 5.511 and 6.374 and 4.542 and 6.846 and 4.398 and 2.755 and 4.192
[4]; M = -6.52
  functional response, concentration-response point (FigS7e, normalized): 2.409 and 1.324 and 2.492 and 1.478 and 2.2654 and 2.677 and 2.607 and 2.647 and 2.733 and 1.4886 and 1.807 and 1.367
[4]; M = -7
  functional response, concentration-response point (FigS7e, normalized): 1.643 and 1.038 and 0.587 and 0.6659 and 0.7726 and 0.2984 and 0.761 and 0.6332 and 1.544 and 0.7947 and 0.4011 and 0.3139
[4]; M = -7.52
  functional response, concentration-response point (FigS7e, normalized): 0.7104 and 0.5146 and 0.05736 and 0.5245 and 1.192 and 0.7027 and 0.8893 and 0.666 and 0.5954 and 0.6963 and -0.03292 and 0.3929
[4]; M = -8
  functional response, concentration-response point (FigS7e, normalized): 0.3645 and 0.5311 and 0.5376 and 0.156 and -0.2264 and 0.2284 and 0.4344 and -0.3685 and 0.1487 and 0.4213 and 0.2144 and 0.1495
[4]; M = -8.52
  functional response, concentration-response point (FigS7e, normalized): 0.07184 and -0.1728 and 0.5013 and 0.625 and -0.3869 and 0.7675 and 0.7171 and -0.3804 and 0.4049 and 0.07444 and 0.02209 and 0.4671
[5]; HTLA, hCB1, read-out: Tango ß-arrestin recruitment Emax
  Emax: 39%
[5]; Log[drug], M = -4.52
  response, replicate values of concentration-response curve (FigS7f): 20.429 and 104.707 and 123.061 and 26.6803 and 2.239 and 9.553 and 21.4993 and 25.3085 and 22.5804
[5]; Log[drug], M = -4.52, individual replicates
  response at Log[drug], M -4.52 (FigS4e): 36.2928 and 40.0634 and 37.595 and 38.9593 and 35.7322 and 28.0596 and 40.2042 and 37.7287 and 36.7316 and 48.023 and 52.3904 and 37.2251
[5]; Log[drug], M = -5
  response, replicate values of concentration-response curve (FigS7f): 29.3399 and 77.9872 and 24.9124 and 21.905 and 24.6119 and -7.914 and 14.0694 and 22.9469 and 35.7257 and 39.8379 and 27.6728 and 20.59
[5]; Log[drug], M = -5, individual replicates
  response at Log[drug], M -5 (FigS4e): 27.1965 and 33.9994 and 36.3175 and 44.6129 and 35.5189 and 28.3176 and 42.1758 and 38.9685 and 43.9354 and 46.1208 and 46.0399 and 37.7973
[5]; Log[drug], M = -5.52
  response, replicate values of concentration-response curve (FigS7f): 24.9035 and 48.7158 and 91.1283 and -6.947 and -26.9779 and -11.1207 and 46.9121 and 22.8407 and -5.557 and 12.4866 and 10.6983 and 18.3267
[5]; Log[drug], M = -5.52, individual replicates
  response at Log[drug], M -5.52 (FigS4e): 25.9735 and 23.5078 and 35.2885 and 29.1149 and 28.5437 and 33.06 and 31.1872 and 38.5344 and 34.9915 and 38.6816 and 30.9446 and 24.7853
[5]; Log[drug], M = -6
  response, replicate values of concentration-response curve (FigS7f): 35.6397 and 64.0988 and 28.3754 and -0.07579 and -2.1717 and -13.0474 and 37.7825 and -1.0184 and -20.7108 and 24.6113 and 35.271 and 22.6916
[5]; Log[drug], M = -6, individual replicates
  response at Log[drug], M -6 (FigS4e): 18.7026 and 18.3517 and 20.9876 and 21.9355 and 21.9032 and 30.9802 and 39.6213 and 23.6016 and 27.6778 and 23.7782 and 27.0192 and 15.1437
[5]; Log[drug], M = -6.52
  response, replicate values of concentration-response curve (FigS7f): 40.4184 and 15.2889 and -15.0213 and 0.4345 and 12.418 and 31.9131 and 56.5195 and 30.6699 and -7.454 and 15.9018 and 24.7629 and -25.11
[5]; Log[drug], M = -6.52, individual replicates
  response at Log[drug], M -6.52 (FigS4e): 2.7065 and 1.809 and 4.4042 and 2.4679 and 5.955 and 7.47 and 7.413 and 8.766 and 8.7 and 7.813 and 3.502 and 4.219
[5]; Log[drug], M = -7
  response, replicate values of concentration-response curve (FigS7f): 42.117 and 22.4701 and 33.4423 and -35.9633 and 6.562 and -3.7308 and 26.543 and 5.232 and -0.3284 and 16.0836 and -9.206 and -14.6626
[5]; Log[drug], M = -7, individual replicates
  response at Log[drug], M -7 (FigS4e): -0.1594 and 1.156 and 1.734 and 0.4738 and 1.35 and 4.375 and 5.525 and -1.39 and -1.9125 and 2.9502 and 2.623 and 0.09812
[5]; Log[drug], M = -7.52
  response, replicate values of concentration-response curve (FigS7f): 9.097 and 42.2455 and 14.1224 and 6.121 and -38.1578 and 8.235 and 7.554 and -8.104 and 19.7008 and -1.133 and -13.7734
[5]; Log[drug], M = -7.52, individual replicates
  response at Log[drug], M -7.52 (FigS4e): -0.8122 and -1.1619 and -0.1273 and 2.722 and 1.436 and 3.312 and 3.337 and -1.53 and 0.254 and -0.2279 and 0.3901 and 2.167
[5]; Log[drug], M = -8, individual replicates
  response at Log[drug], M -8 (FigS4e): -0.5798 and -1.11 and -0.9423 and 0.6357 and 0.4201 and 2.003 and 3.003 and -1.545 and 0.894 and 0.1363 and 0.04065 and -0.5839
[5]; Log[drug], M = -8.52, individual replicates
  response at Log[drug], M -8.52 (FigS4e): -0.1435 and -1.173 and 0.8807 and -1.256 and 3.396 and 0.2695 and 3.693 and -1.556 and 1.54 and 0.762 and 0.3566 and -1.166
[5]; Log[drug], M = -9, individual replicates
  response at Log[drug], M -9 (FigS4e): -0.3789 and 0.9257 and 0.4985 and -1.1206 and 0.6246 and 1.649 and 1.459 and 1.082 and -0.1538 and 1.773 and 1.969 and 1.368
[5]; Log[drug], M = -9.52
  response, replicate values of concentration-response curve (FigS7f): 41.217 and -5.872 and -26.7955 and -2.208 and 11.6321 and -16.1909 and 10.2609 and 13.9367 and -21.8387 and 26.5917
[5]; Log[drug], M = -9.52, individual replicates
  response at Log[drug], M -9.52 (FigS4e): -0.6308 and 0.506 and 1.398 and 0.3411 and 1.417 and 1.054 and 1.983 and 0.4806 and -1.1508 and 1.754 and 1.621 and -0.4835
[5]; Log[drug], M = -10
  response, replicate values of concentration-response curve (FigS7f): 24.3711 and 8.545 and -42.2513 and 15.4728 and -21.9203 and 6.572 and 26.8747 and -5.278 and 28.0467 and 13.9517
[5]; Log[drug], M = -10, individual replicates
  response at Log[drug], M -10 (FigS4e): -0.3624 and -0.5584 and 1.6 and 1.1356 and 0.03407 and 2.157 and 0.3066 and -2.677 and -0.1348 and -0.07275 and 2.928 and 0.8882
[5]; Log[drug], M = -10.52, individual replicates
  response at Log[drug], M -10.52 (FigS4e): -0.1972 and -0.5734 and -0.1162 and -0.5884 and 2.053 and 3.553 and 2.404 and 0.5855 and 0.2182 and 0.2755 and 0.7811 and -2.185
[5]; Log[drug], M = -11, individual replicates
  response at Log[drug], M -11 (FigS4e): -0.4863 and -0.2436 and -0.1687 and -1.788 and -0.3582 and 1.843 and 0.2942 and 1.859 and 1.201 and 2.6701 and -0.898 and 1.465
[5]; Log[drug], M = -11.52, individual replicates
  response at Log[drug], M -11.52 (FigS4e): -1.461 and -1.915 and -0.401 and -1.735 and -0.6638 and -0.2757 and -0.3004 and 0.6619 and 0.7048 and -0.5021 and 3.748 and -0.3785
[5]; Log[drug], M = -12, individual replicates
  response at Log[drug], M -12 (FigS4e): 0.3314 and 0.2511 and -0.1836 and 1.061 and -0.3335 and 0.1951 and -0.1931 and -0.7644 and -0.8837 and -0.1348 and 1.783 and -1.1281
[5]; hCB1
  Tango ß-arrestin recruitment pEC50: 6.1 [6.0 – 6.1]
[5]; hCB1, read-out: Tango ß-arrestin recruitment EC50
  EC50: 0.819 µM
